According to paper PMC7732531 (Frontiers in Pharmacology, 2020):
Where two headings read alike, the source gives them in different places.

Legend:
in vitro [1] = conditions: human, Caco-2
Procedure: (§1) Caco-2 cell lines were cultured (ATCC, Manassas, VA, United States) as described previously ([Liu et al., 2014]). Briefly, the cells were cultured at 37°C in 5% CO2 at 90% humidity in DMEM high glucose medium containing 20% fetal bovine serum, 1% nonessential amino acids, 100 U/ml penicillin and 1% streptomycin. For the efflux studies, the cells were seeded onto polyethylene terephthalate Millicell® cell culture inserts (0.4 μm pore size, 6.5 mm diameter, Millipore Corporation, Billerica, MA, United States) at a density of 1.7 × 10^5 cells/ml. The culture medium was refreshed on the day after seeding, after which it was refreshed every other day and on the day before the transport experiment. The cells were cultured for 20–22 days after seeding and then evaluated by measuring the transepithelial electrical resistance (TEER) (Millicell ERS®, Millipore Corporation) before experiments. […] Transepithelial permeability studies for YL-IPA08 (10 μM) were conducted from apical to basolateral side (A-B) and basolateral to apical side (B-A) for 120 min 0.2% BSA was included in the receiver solution to avoid nonspecific binding. At 60, 90, and 120 min, half volume of solution from receiver side was withdrawn, and same volume of HBSS was immediately added. Obtained samples were precipitated by adding 4× volumes of acetonitrile containing IS and centrifuged. The supernatants were stored in −20°C until further analysis by LC-MS/MS.
(§2) The in vitro t1/2 in liver microsomal incubation was calculated from the semi-log plot of percentage remaining vs. incubation time and intrinsic clearance (Clint, ml/min/mg protein) was calculated as Eq. 1: CLint=0.693/in vitro t1/2×volume of incubation (μl)/amount of microsomal protein in incubation (mg) (1) ([Suzuki et al., 2003]).Apparent permeability was obtained according to the equation Papp = (dQ/dt)/(A × C0), where dQ/dt is the mass transport rate (determined from the slope of the amount transported vs. time plot), A is the surface area of the monolayer, and C0 is the initial concentration of YL-IPA08 in the donor chamber ([Suzuki et al., 2003]). The efflux ratio was calculated for each study using the following equation: […] = Papp(B–A)/Papp(A–B), where Papp(B–A) and Papp(A–B) represent apparent drug permeability in the B to A and A to B direction, respectively. An efflux ratio greater than 2 indicates net efflux.

Caco-2 cells = assay: in vitro
Procedure: as §1, §2

in vitro [2] = conditions: rat; for fraction unbound at 4 h, 1 µM: plasma
Procedure: The fraction of unbound YL-IPA08 in plasma and liver microsomes of rat and human, and brain homogenates of rat were determined utilizing Rapid Equilibrium Dialysis method ([Waters et al., 2008]). Rat brain homogenate was harvested in 4-fold volume (w/v) of PBS (pH 7.4). YL-IPA08 were spiked into fresh plasma, rat brain homogenate, liver microsomes (0.2 mg/ml protein) at concentration of 1 µM, and then dialyzed against […] on a shaker at 37°C for 4 h. To avoid the high non-specific binding of YL-IPA08, 0.01% Tween 80 was added in the incubation mixture. At the end of the incubation, protein was precipitated with acetonitrile (containing IS) and analyzed by LC-MS/MS. Phenacetin, quinidine, and warfarin were selected as positive control for the protein binding test.
The unbound fraction of YL-IPA08 in plasma or liver microsomes (ƒu,x) was calculated as shown in Eq. 2, and unbound fraction in the tissue homogenate (ƒu,b) was calculated according to Eq. 3. fu,x = Concbuffer chamber/Concplasma/liver microsomes chamber (2) fu,b = Concbuffer chamber/Concbrain homogenate chamber (3) The measured unbound fractions would be higher when a tissue is homogenized and diluted in buffer, the unbound fractions in an undiluted tissues (ƒu,brain) were calculated using Eq. 4 ([Kalvass and Maurer, 2002]). Undiluted fu,brain=1/D/((1/fu,brain homogenate)−1)+1/D (4) Where D represents the fold of dilution factor in brain homogenates. The free fraction of plasma and undiluted tissue is used in tissue-to-plasma exposure ratio calculation.

in vitro [3] = assay type: in vitro ADME; conditions: human, microsomes
Procedure: The fraction of unbound YL-IPA08 in plasma and liver microsomes of rat and human, and brain homogenates of rat were determined utilizing Rapid Equilibrium Dialysis method ([Waters et al., 2008]). Rat brain homogenate was harvested in 4-fold volume (w/v) of PBS (pH 7.4). YL-IPA08 were spiked into fresh plasma, rat brain homogenate, liver microsomes (0.2 mg/ml protein) at concentration of 1 µM, and then dialyzed against biomatrices on a shaker at 37°C for 4 h. To avoid the high non-specific binding of YL-IPA08, 0.01% Tween 80 was added in the incubation mixture. At the end of the incubation, protein was precipitated with acetonitrile (containing IS) and analyzed by LC-MS/MS. Phenacetin, quinidine, and warfarin were selected as positive control for the protein binding test.
The unbound fraction of YL-IPA08 in plasma or liver microsomes (ƒu,x) was calculated as shown in Eq. 2, and unbound fraction in the tissue homogenate (ƒu,b) was calculated according to Eq. 3. fu,x = Concbuffer chamber/Concplasma/liver microsomes chamber (2) fu,b = Concbuffer chamber/Concbrain homogenate chamber (3) The measured unbound fractions would be higher when a tissue is homogenized and diluted in buffer, the unbound fractions in an undiluted tissues (ƒu,brain) were calculated using Eq. 4 ([Kalvass and Maurer, 2002]). […]

[4] = Pilot enzyme kinetic study in liver microsomes; assay type: in vitro ADME
From the text: Since identification of F a, F g and F h is of importance to mechanistic understanding the systemic exposure, the related efficacy, and the potent drug-drug interactions, a number of in vivo and in vitro models have been developed to elucidate F a, F g and F h. As for in vitro methods, liver microsomes, S9 or hepatocytes are all well accepted for the generation of hepatic clearance and F h via in vitro-in vivo extrapolation (IVIVE) ([Houston and Carlile, 1998]). Furthermore, functionally mature enterocytes mainly express CYPs and UGTs. Among UGT isoforms, UGT1A8 and UGT1A10 show gut-specific expression patterns ([Kaminsky and Zhang, 2003]; [Court et al., 2012]). However, the achievement of intestinal clearance and (F g) from intestinal microsomes is limited by a lack of consensus on the appropriate scaling factors and a low availability of high-quality tissue. In the present study, in vitro metabolic stability of YL-IPA08 was performed in liver microsomes and intestinal microsomes of rat and human in the presence of NADPH and UDPGA to identify the metabolizing enzyme, organ, and species difference. […] UGT is not involved in the depletion of YL-IPA08. Although the CYP-mediated elimination in HIM and RIM were also observed, with great difference of enzyme expression level between liver and gut, the contribution of intestinal metabolism to the oral bioavailability is hard to define. […]

[5] = male, rat, in vivo, po, 1 mg/kg; for Plasma concentration: SD
Procedure: The surgical procedure for portal vein catheter insertion was performed according to reference ([Matsuda et al., 2012]). Male SD rats (250–280 g) were purchased from Beijing Vital River Laboratory Animal Technology Co., Ltd. (Beijing, China). Rats were anesthetized with 2% pentobarbital sodium (0.2–0.3 mg/100 g) intraperitoneally dosed. Cannulation into the jugular vein was performed by the method of Murakami reported ([Murakami et al., 2003]) with minor modification. Briefly, an incision of ∼0.5 cm near right clavicle was made and the jugular vein was exposed. Next, this vein was cannulated with ∼12.5 cm of silicone gel tubing (0.6 mm I.D. × 0.9 mm O.D., Skillsmodel Inc., Beijing, China). The other side of the tubing was passed through the back skin. 2.5 cm midline incision was made in the abdominal cavity close to ensiform process and the portal vein was detached. To prevent bleeding, the portal vein was ligated temporarily as the catheter was inserted. The silicone tubing (22 cm, 0.6 mm I.D. × 0.9 mm O.D., Skillsmodel Inc., Beijing, China) was inserted immediately and fixed by a purse-string suture on the portal vein. The time to reperfusion was about 1 min after intercepted blood flow. In addition, a catheter with trumpet-shaped opening was used to prevent the catheter from slipping out of the vessel and minimize the effect on blood flow. Another end of the catheter was passed subcutaneously to the skin close to the scapula.
Blood samples were collected at 0, 0.083, 0.25, 0.5, 1, 2, 4, 6, 8 and 12 h. Blood (approximately 100 µl) was collected from the jugular and portal veins into tubes containing heparin on ice and centrifuged within 1 h of collection. Plasma was harvested and stored at −20°C for bioanalysis.
FaFg was calculated using mass balance method and rat portal blood flow (Qpv) of 32 ml/min/kg, where Rb/p is used to convert plasma concentrations to blood concentrations.

TSPO = tested on: TSPO; design: method as in Zhang et al. (2017); conditions: crude mitochondrial fraction from rat cerebellum, 10 volumes HS buffer; ref Zhang et al. (2017); cited from earlier work

CCN(Cc1ccccn1)C(=O)Cc1c(-c2ccc(Cl)c(Cl)c2)nc2cc(C)ccn12 [YL-IPA08]
Papp A→B at 120 min, 10 μM (in vitro [1]): 3.99 ± 1.46 ×10⁻⁶ cm/s
Papp B→A at 120 min, 10 μM (in vitro [1]): 2.63 ± 0.43 ×10⁻⁶ cm/s
efflux ratio at 120 min, 10 μM (in vitro [1]): 0.66
permeability across Caco-2 cells (in words) (Caco-2 cells; Caco-2): high permeability
Concentration, DOB (Caco-2 cells; Caco-2, basolateral donor at time 0): 8883 ± 436 nM
Concentration, DOA (Caco-2 cells; human, Caco-2, 0 min, 10 µM): 8350 ± 173 nM
Concentration, A-B-B-60 min (Caco-2 cells; human, Caco-2, 60 min, 10 µM): 13 ± 4 nM
Concentration, B-A-A-60 min (Caco-2 cells; human, Caco-2, 60 min, 10 µM): 28 ± 8 nM
Concentration, A-B-B-90min (Caco-2 cells; human, Caco-2, 90 min, 10 µM): 36 ± 25 nM
Concentration, B-A-A-90min (Caco-2 cells; human, Caco-2, 90 min, 10 µM): 68 ± 27 nM
Concentration, A-B-A-120 min (Caco-2 cells; human, Caco-2, 120 min, 10 µM): 1755 ± 135 nM
Concentration, A-B-B-120 min (Caco-2 cells; human, Caco-2, 120 min, 10 µM): 50 ± 17 nM
Concentration, B-A-A-120 min (Caco-2 cells; human, Caco-2, 120 min, 10 µM): 105 ± 14 nM
Concentration, B-A-B-120 min (Caco-2 cells; human, Caco-2, 120 min, 10 µM): 2598 ± 360 nM
P appA-B (Caco-2 cells; human, Caco-2, 120 min, 10 µM): 3.99 × 10^–6 cm/s
P appB-A (Caco-2 cells; human, Caco-2, 120 min, 10 µM): 2.63 × 10^–6 cm/s
Concentration, Cbuffer chamber (in vitro [2]; 4 h, 1 µM): 5.44 ± 0.33 nM
Concentration, Cplasma/microsome chamber (in vitro [2]; 4 h, 1 µM): 872.67 ± 32.52 nM
Protein biding (%) (in vitro [2]; 4 h, 1 µM): 99.40 ± 0.01%
fraction unbound at 4 h, 1 µM (in vitro [2]): ~0.01
fraction unbound at 4 h, 1 µM (in vitro [2]; Unbound fraction): 0.006
fraction unbound at 4 h, 1 µM (in vitro [3]): 0.447
K m [4]: 1 to 3 µM
Plasma concentration ([5]; 0.5 h): 111.40 ± 22.00 ng/mL
Plasma concentration ([5]; 1 h): 101.93 ± 40.76 ng/mL
Plasma concentration ([5]; 2 h): 91.33 ± 38.19 ng/mL
Plasma concentration ([5]; 4 h): 41.78 ± 20.79 ng/mL
Plasma concentration ([5]; 6 h): 12.85 ± 4.33 ng/mL
Plasma concentration ([5]; 8 h): 5.62 ± 1.64 ng/mL
Plasma concentration ([5]; 12 h): 1.98 ± 0.88 ng/mL
F a F g ([5]; Sprague-Dawley (SD)): 22%
IC50 (TSPO): 0.23 nM
